Read-outs that look alike come from different tables or passages of the source.
Assays:
[1] = system: Rice; assay: Intermediate Retardant Test, rice; assay type: in vivo, Rice (Ishikari); settings: Oryza sativa, 672 h, ~28 days, read-out: Percentage Reduction in Height of Rice (Compared to formulation blank)
Method: (§1) Three species are involved in this test RICE, SPRING-BARLEY and APPLES. The variety and growth stages at spray are outlined in Table VI. Compounds were applied at 1000 ppm and 4000 ppm respectively (1 kg and 4 kg ha^-1 at a field volume of 1000 l/ha^-1) as an overall spray. This gives a foliar and root component in the test, i.e. this test will detect the activity of both root and foliar acting compounds. The rice was grown in 4" `paddy` pots, i.e. the roots and bottom of the stems are immersed in water under conditions corresponding to those in paddy fields. Spring barley and apples were grown in 4" pots. The plants were assessed for height to top-most ligule at approximately 28 days after treatment for spring barley and rice and for height to apex at approximately 28 days after the treatment for apples. In each case the result for the 1000 ppm and 4000 ppm test for each compound is compared to the height of the formulation blank in that test, presented as a percentage reduction in height compared to the formulation blank.
as §1, with “in Table XIV. Compounds were” for “in Table VI. Compounds were”, “that test, and presented as” for “that test, presented as”

[2] = system: Apples; assay: Intermediate Retardant Test, apples; assay type: in vivo, Apples (Red Delicious); settings: 672 h, ~28 days, read-out: Percentage Reduction in Height of Apples (Compared to formulation blank)
Method: as §1
as §1, with “in Table XIV. Compounds were” for “in Table VI. Compounds were”, “that test, and presented as” for “that test, presented as”

[3] = system: Wheat; assay: Whole Plant Screen (2), wheat; assay type: in vivo, Wheat (Timmo); settings: WW, 4000 ppm
Method: (§2) Compound numbers 12-13, 16-17 and 19-20 were tested on an alternative whole plant screen (2). The compounds were tested for plant growth regulator activity against five species for various growth effects relevant to plant growth regulation.
The plant species used in this screen are presented in Table IV with the leaf stage at which they were sprayed. Each chemical was applied at 4000 ppm (4 kg/ha in a 1000 l/ha field volume) using a tracksprayer and a SS8004E (Teejet) nozzle. […]
After 2-6 weeks in the glasshouse, depending on the time of year, the plants were visually assessed for morphological characteristics. Formulation blanks were used as controls to assess the plants. […]

[4] = system: plant species of Whole Plant Screen (1) or (2); assay: Across screen comparison: total retardation relative to paclobutrazol (Whole Plant Screens (1) and (2)); assay type: in vivo; settings: for Total Retardation expressed as a percentage of the total retardation caused by paclobutrazol: compounds of EP 0052424, Table XI
Description: The following Example is a general indicative comparison of compounds from EP No. 0052424 with compounds from the preferred class in the present invention. The compounds have not been side-by-side tested on this Example because of the large numbers involved but the retardant activity can be compared using a standard which has been on each test.
The compounds which are compared in this Example have been tested on one of two tests. These are the Whole Plant Screen (1) and Whole Plant Screen (2) the methods for which are described in Examples 17 and 18 respectively.
An across screen comparison between compounds is made by expressing the total retardation (ie. sum of retardation scores recorded for each species tested) caused by the compound as a percentage of the total retardation caused by the standard in that test. The standard chemical gives a measure of the performance of the test and environmental factors. By expressing the test compound activity as a percentage of the standard compound activity these factors can be eliminated . The same standard has been used in every test and this is paclobutrazol a proprietory growth regulator.

[5] = system: Rice; assay: Whole Plant Screen (2), rice; assay type: in vivo, Rice (Ishikari); settings: RC, 4000 ppm
Method: (§3) After 2-6 weeks in the glasshouse, depending on the time of year, the plants were visually assessed for morphological characteristics. Formulation blanks were used as controls to assess the plants.
(§4) Compound numbers 1, 5 and 7 (of the present invention) were tested against compounds A, B, C and D (compound Nos. 12, 2, 24 and 50 of Table 1 EP No. 0052424) on whole plant screen (2). The compounds were tested of plant growth regulator activity against five species and for various growth effects relevant to plant growth regulation. The structures are set out in FIG. 1.
(§5) The plant species used in this screen are presented in Table XII with the leaf stage at which they were sprayed Each chemical was applied at 4000 ppm (4 kg/ha in a 1000 l/ha field volume) using a tracksprayer and a SS8004E (Teejet) nozzle. […]

[6] = system: Maize; assay: Whole Plant Screen (2), maize; assay type: in vivo, Maize (Earliking); settings: MZ, 4000 ppm
Method: as §2
The plant species used in this screen are presented in Table IV with the leaf stage at which they were sprayed. Each chemical was applied at 4000 ppm (4 kg/ha in a 1000 l/ha field volume) using a tracksprayer and a SS8004E (Teejet) nozzle.
(§6) After spray the plants were grown in a glasshouse with 25° C. day 22° C. night temperatures and supplementary lighting was supplied when necessary (from mercury vapour lamps), to provide a 16 hour photoperiod. The exception to this were the temperate cereals, wheat and barley which were grown in 16° C. day 13° C. night temperatures.
as §3, §4
The plant species used in this screen are presented in Table XII with the leaf stage at which they were sprayed Each chemical was applied at 4000 ppm (4 kg/ha in a 1000 l/ha field volume) using a tracksprayer and a SS8004E (Teejet) nozzle.
as §6, with “day/22°” for “day 22°”, “day/13°” for “day 13°”

[7] = system: Spring Barley; assay: Intermediate Retardant Test, spring barley; assay type: in vivo, Spring Barley (Atem/kym); settings: Hordeum vulgare, 672 h, ~28 days, read-out: Percentage Reduction in Height of Spring Barley (Compared to formulation blank)
Method: as §1
as §1, with “in Table XIV. Compounds were” for “in Table VI. Compounds were”, “that test, and presented as” for “that test, presented as”

[8] = system: Barley; assay: Whole Plant Screen (2), barley; assay type: in vivo, Barley (Atem); settings: BR, 4000 ppm
Method: as §4, §5

[9] = system: Tomato; settings: TO, 4000 ppm, 2-3 weeks
Method: (§7) The compounds were tested for plant growth regulator activity against up to tweleve plant species for various growth effects relevant to plant growth regulation.
(§8) After spray, the plants were grown in a glasshouse with 25° C. day/22° C. night temperatures and supplementary lighting was supplied when necessary (from mercury vapour lamps), to provide a 16 hour photoperiod. The exception to this were the temperate cereals, wheat and barley, which were grown in 16° C. day 13° C. night temperatures
(§9) After 2-3 weeks in the glasshouse, depending on the time of year, the plants were visually assessed for morphological characteristics. Formulations blanks were used as controls to assess the Plants.

[10] = system: Cynosurus cristatus; settings: CC, 4000 ppm, 2-3 weeks
[11] = system: Wheat; settings: WW, 4000 ppm, 2-3 weeks
Method: as §7, §8, §9

Row | Compound | Percent reduction in rice plant height vs formulation blank at 1000 ppm ([1]; side-by-side, Table XVI) [%] | Percent reduction in rice plant height vs formulation blank at 4000 ppm ([1]; side-by-side, Table XVI) [%] | percent reduction in plant height vs formulation blank at 1000 ppm ([2]; side-by-side, Table XVII) [%] | percent reduction in plant height vs formulation blank at 4000 ppm ([2]; side-by-side, Table XVII) [%] | Total Retardation expressed as a percentage of the total retardation caused by paclobutrazol [4] | height reduction vs blank at 1000 ppm ([7]; side-by-side, Table XV) [%] | height reduction vs blank at 4000 ppm ([7]; side-by-side, Table XV) [%] | percent reduction in plant height vs formulation blank at 4000 ppm ([2]; Table IX) [%] | other results
1 | CC(C)(C)C=CC(O)(Cn1cncn1)C(C)(C)C (stereo not shown) [A, reference compound] | 4 | 20 | 2 | 14 | 62.5 % of paclobutrazol | 5 | 13 |  | G = Greening effect ([3]; side-by-side, Table XIII): 1 (10-30%); range of activity / superiority in comparison with EP 0052424 compounds ([4]; Tables X and XI, across screen comparison): higher range of activity than the rest of the compounds; T = Tillering or side shooting ([5]; side-by-side, Table XIII): 2 (31-60%); I = Interligular or internodal length reduction ([6]; side-by-side, Table XIII): 1 (10-30%); R = Retardation ([6]; side-by-side, Table XIII): 1 (10-30%)
2 | CC(C)(C)C(O)(C=Cc1ccc(Cl)cc1)Cn1cncn1 (stereo not shown) [B, reference compound] | 3 | 11 | 0 | 3 | 43.1 % of paclobutrazol | 8 | 7 |  | I = Interligular or internodal length reduction ([5]; side-by-side, Table XIII): 1 (10-30%); R = Retardation ([5]; side-by-side, Table XIII): 1 (10-30%); I = Interligular or internodal length reduction ([6]; side-by-side, Table XIII): 1 (10-30%); R = Retardation ([6]; side-by-side, Table XIII): 1 (10-30%); T = Tillering or side shooting ([8]; side-by-side, Table XIII): 1 (10-30%)
3 | CC(C)(C)C(O)(C#Cc1ccc(Cl)cc1)Cn1cncn1 (stereo not shown) [C, reference compound] | 5 | 13 | 0 | 0 | 7.1 % of paclobutrazol | 4 | 6 |  | 
4 | CCCC#CC(O)(Cn1cncn1)C(C)(C)C (stereo not shown) [Compound 11] |  |  |  |  |  |  |  |  | Retardation score (1-3) with greening (G), apical damage (A), tillering/side shooting (T) [9]: 2T; Retardation score (1-3) with greening (G), apical damage (A), tillering/side shooting (T) [10]: 1 (10-30% retardation); Retardation score (1-3) with greening (G), apical damage (A), tillering/side shooting (T) [11]: 1 (10-30% retardation); height reduction vs blank at 1000 ppm ([7]; Table VIII): 24%; height reduction vs blank at 4000 ppm ([7]; Table VIII): 49.4%
5 | CCCC#CC(Cn1cncn1)(OC)C(C)(C)C (stereo not shown) [Compound 12] |  |  |  |  |  |  |  | 33.6 | Percent reduction in rice plant height vs formulation blank at 1000 ppm ([1]; Table VII): 23.8%; Percent reduction in rice plant height vs formulation blank at 4000 ppm ([1]; Table VII): 49.7%; percent reduction in plant height vs formulation blank at 1000 ppm ([2]; Table IX): 15.7%; I = Interligular or internodal length reduction ([6]; 2-6 weeks, Table V): 1 (10-30%); R = Retardation ([6]; 2-6 weeks, Table V): 1 (10-30%); height reduction vs blank at 1000 ppm ([7]; Table VIII): 2.7%; height reduction vs blank at 4000 ppm ([7]; Table VIII): 12.6%
6 | CCCC#CC(O)(Cn1cncn1)C(C)(C)CCl (stereo not shown) [Compound 19] |  |  |  |  |  |  |  | 36.6 | 
7 | CCCCCC#CC(O)(Cn1cncn1)C(C)(C)CF (stereo not shown) [Compound 20] |  |  |  |  |  |  |  |  | G = Greening effect ([3]; 2-6 weeks, Table V): 2 (31-60%); T = Tillering or side shooting ([3]; 2-6 weeks, Table V): 2 (31-60%); T = Tillering or side shooting ([5]; 2-6 weeks, Table V): 1 (10-30%); I = Interligular or internodal length reduction ([8]; 2-6 weeks, Table V): 1 (10-30%)
8 | CCCCCCC#CC(O)(Cn1cncn1)C(C)(C)CF (stereo not shown) [Compound 21] |  |  |  |  |  |  |  | 0 | percent reduction in plant height vs formulation blank at 1000 ppm ([2]; Table IX): 10%
9 | COC(C)(C)C#CC(O)(Cn1cncn1)C(C)(C)C (stereo not shown) [D, reference compound] | 2 | 7 | 0 | 0 | 3.6 % of paclobutrazol | 9 | 13 |  | 
